Experimental data published in patent US20070185115A1, “Novel ureido-and amido-pyrazolone derivatives” (Aston University, priority 2003, published 2007).
Read-outs that look alike come from different tables or passages of the source.

Legend:
CCKB receptor = target: T1, CCKB receptor (Cavia porcellus, UniProt H0VZC5); experiment: 125I-CCK-8 receptor binding assay, CCKB (guinea pig cerebral cortex membranes)
T1 construct: Male guinea pig brain tissues were prepared according to the modified method described by Saita et al; from tissue; host or cells: guinea pig cerebral cortex membranes
T1 sequence (H0VZC5 1-426): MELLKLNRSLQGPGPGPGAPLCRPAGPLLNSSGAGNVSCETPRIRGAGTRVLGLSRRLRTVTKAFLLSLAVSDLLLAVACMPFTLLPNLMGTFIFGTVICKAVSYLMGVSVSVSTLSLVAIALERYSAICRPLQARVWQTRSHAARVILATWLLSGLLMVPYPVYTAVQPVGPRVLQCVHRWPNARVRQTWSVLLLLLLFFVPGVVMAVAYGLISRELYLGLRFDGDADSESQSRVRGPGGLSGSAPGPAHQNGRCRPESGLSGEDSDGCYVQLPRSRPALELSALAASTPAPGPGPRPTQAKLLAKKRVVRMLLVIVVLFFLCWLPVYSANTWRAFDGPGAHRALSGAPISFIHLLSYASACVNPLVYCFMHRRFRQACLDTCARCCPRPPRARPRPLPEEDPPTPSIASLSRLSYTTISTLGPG
Experimental: (§1) Pharmacological Methods—^[125]I-CCK-8 Receptor Binding Assay
(§2) CCKA and CCKB receptor binding assays were performed, by using guinea pig cerebral cortex (CCKB) or rat pancreas (CCKA). Male guinea pig brain tissues were prepared according to the modified method described by Saita et al, [(1994), Characterization of YM022: its CCKB/gastrin receptor binding profile and antagonism to CCK-8-induced Ca2+mobilization., Eur. J. PharmacoL,269, 249-254]. Pancreatic membranes were prepared in a similar way but by Charpentier et al, [(1988), Cyclic cholecystokinin analogues with high selectivity for central receptors., Proc Natl Acad Sci USA, 85, 1968-1972]. For the in vivo CCK binding assay tissues were homogenised in ice cold sucrose (0.32 M, 25 ml) for 15 strokes at 500 rpm and centrifuged at 13000 rpm for 10 mins. The supernatant was re-centrifuged at 13000 rpm for 20 mins. The resulting pellet was re-dispersed to the required volume of buffer at 500 rpm and stored in aliquots at […].
(§3) Binding was achieved using a.radioligand ^125I-Bolton-Hunter labeled CCK, NEN at 25 pM. The samples were incubated {with membranes (0.1 mg/ml)} in 20 mM Hepes, 1 mM EGTA, 5 mM MgCl2, 150 mm NaCl, 0.25 mg/ml bacitracin at pH 6.5 for 2 hrs at RT and then […] by centrifugation at 1100 rpm for 5 minutes. The membrane pellets were washed twice with water and the bound radioactivity was measured in a Packard Cobra Auto-gamma counter (B5005). All binding assays were carried out with L-365, 260 (Bock, M. G., et. al., Benzodiazepine gastrin and brain cholecystokinin receptor ligands. L-365,260, J. Med. Chem. 1989, 32, 14-24) as an internal non-specific standard. Controls (no compound) were also added. All samples were made in duplicate and repeated twice. All compounds were initially screened for percentage inhibition at 20 μm.

CCKA receptor = target: T2, CCKA receptor (Rattus norvegicus, UniProt P30551); experiment: 125I-CCK-8 receptor binding assay, CCKA (rat pancreas membranes); details: for Ratio A/B: ratio of CCKB and CCKA IC50 values
T2 construct: Pancreatic membranes were prepared in a similar way but by Charpentier et al; from tissue; host or cells: rat pancreas membranes
T2 sequence (P30551 1-444): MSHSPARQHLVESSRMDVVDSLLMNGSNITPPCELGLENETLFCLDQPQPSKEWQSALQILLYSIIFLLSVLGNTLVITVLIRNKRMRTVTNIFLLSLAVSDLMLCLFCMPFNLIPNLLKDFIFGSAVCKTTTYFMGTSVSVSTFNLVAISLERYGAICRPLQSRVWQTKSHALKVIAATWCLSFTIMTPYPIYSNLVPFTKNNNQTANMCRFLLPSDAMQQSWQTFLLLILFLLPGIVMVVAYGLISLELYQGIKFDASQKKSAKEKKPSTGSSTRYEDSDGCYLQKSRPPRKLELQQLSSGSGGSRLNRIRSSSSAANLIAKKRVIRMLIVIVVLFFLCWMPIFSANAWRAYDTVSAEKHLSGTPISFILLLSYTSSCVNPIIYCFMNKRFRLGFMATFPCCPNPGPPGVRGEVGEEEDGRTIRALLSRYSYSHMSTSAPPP
Experimental: as §1, §2, §3

[1] = Table 1, phenyl pyrazolinone ureas, guinea pig cerebral cortex, 125I-Bolton-Hunter CCK 25 pM, read-out: IC50 CCKB
[2] = Table 2, phenylpyrazolinone amides, guinea pig cerebral cortex, 125I-Bolton-Hunter CCK 25 pM, read-out: IC50 CCKB
[3] = Table 2, phenylpyrazolinone amides, rat pancreas, 125I-Bolton-Hunter CCK 25 pM, read-out: IC50 CCKA
[4] = Table 3, diphenyl pyrazolyl ureas, guinea pig cerebral cortex, 125I-Bolton-Hunter CCK 25 pM, read-out: IC50 CCKB
[5] = Table 3, diphenyl pyrazolyl ureas, rat pancreas, 125I-Bolton-Hunter CCK 25 pM, read-out: IC50 CCKA
[6] = Table 4, diphenyl pyrazolinone amides, guinea pig cerebral cortex, 125I-Bolton-Hunter CCK 25 pM, read-out: IC50 CCKB
[7] = Table 4, diphenyl pyrazolinone amides, rat pancreas, 125I-Bolton-Hunter CCK 25 pM, read-out: IC50 CCKA

`Cc1c(NC(=O)Nc2ccc(Cl)cc2)c(=O)n(-c2ccccc2)n1C` [Example 3, N-(4-chlorophenyl)-N′-(1,5-dihiethyl-3-oxo-2-phenyl-2,3-dihydro-1H-pyrazol-4-yl)urea] showed an IC50 (CCKB receptor; [1]) of 2.5 µM.
`COc1ccc(NC(=O)Nc2c(C)n(C)n(-c3ccccc3)c2=O)cc1` [Example 6] gave an IC50 (CCKB receptor; [1]) of over 10 µM.
For `Cc1cccc(NC(=O)Nc2c(C)n(C)n(-c3ccccc3)c2=O)c1` [Example 8], the IC50 (CCKB receptor; [1]) was 5 µM.
In the case of `Cc1ccc(NC(=O)Nc2c(C)n(C)n(-c3ccccc3)c2=O)cc1` [Example 9], the IC50 (CCKB receptor; [1]) is reported as over 20 µM.
`Cc1c(NC(=O)Nc2cccc(Cl)c2)c(=O)n(-c2ccccc2)n1C` [Example 10] was tested, and the IC50 (CCKB receptor; [1]) was over 10 µM.
For `Cc1c(NC(=O)Nc2ccc(Br)cc2)c(=O)n(-c2ccccc2)n1C` [Example 11], the IC50 (CCKB receptor; [1]) was 7 µM.
`Cc1c(NC(=O)Nc2ccccc2[N+](=O)[O-])c(=O)n(-c2ccccc2)n1C` [Example 12] gave an IC50 (CCKB receptor; [1]) of over 20 µM.
`Cc1c(NC(=O)NC2CCCCC2)c(=O)n(-c2ccccc2)n1C` [Example 14] was tested, and the IC50 (CCKB receptor; [1]) was over 10 µM.
`Cc1c(NC(=O)c2cc3ccccc3[nH]2)c(=O)n(-c2ccccc2)n1C` [Example 16] was tested, and the IC50 (CCKB receptor; [2]) was 0.9 µM, the IC50 (CCKA receptor; [3]) was 0.08 µM and the “Ratio A/B” value (CCKA receptor; Table 2) was 11.3.
For `Cc1c(NC(=O)CCc2c[nH]c3ccccc23)c(=O)n(-c2ccccc2)n1C` [Example 17, N-(1,5-Dimethyl-3-oxo-2-phenyl-2 3dihydro-1H-pyrazol-4yl)-3-(1H-indol-3-yl)propanamide], the IC50 (CCKB receptor; [2]) was 4 µM, the IC50 (CCKA receptor; [3]) was 1 µM and the “Ratio A/B” value (CCKA receptor; Table 2) was 4.
For `Cc1c(NC(=O)c2c[nH]c3ccccc23)c(=O)n(-c2ccccc2)n1C` [Example 18], the IC50 (CCKB receptor) was 15 µM and the IC50 (CCKA receptor) was 2 µM.
`Cc1c(NC(=O)Cc2c[nH]c3ccccc23)c(=O)n(-c2ccccc2)n1C` [Example 19] gave an IC50 (CCKB receptor; [2]) of 9 µM and an IC50 (CCKA receptor; [3]) of 2 µM.
Compound `COc1cccc(NC(=O)Nc2c(C)n(-c3ccccc3)n(-c3ccccc3)c2=O)c1` [Example 21, N-(5-methyl-3-oxo-1,2-diphenyl-2,3-dihydro-1H-pyrazol-4-yl)N′-3-methoxyphenylurea] has an IC50 (CCKB receptor; [4]) of 0.035 µM and an IC50 (CCKA receptor; [5]) of 0.01 µM.
`Cc1cccc(NC(=O)Nc2c(C)n(-c3ccccc3)n(-c3ccccc3)c2=O)c1` [Example 22, N-(5-Methyl-3-oxo-1,2-diphenyl-2,3-dihydro-1H-pyrazol4-yl)N′-3-methylphenylurea] gave an IC50 (CCKB receptor; [4]) of 0.025 µM and an IC50 (CCKA receptor; [5]) of 0.02 µM.
Work on `Cc1c(NC(=O)Nc2ccc(Br)cc2)c(=O)n(-c2ccccc2)n1-c1ccccc1` [Example 24, N-(4-Bromophenyl)-N′-(5-methyl-3-oxo-1,2-diphenyk-2,3-dihydro-1H-pyrazol-4-yl)urea] yielded an IC50 (CCKB receptor; [4]) of over 20 µM.
`Cc1c(NC(=O)Nc2ccccc2[N+](=O)[O-])c(=O)n(-c2ccccc2)n1-c1ccccc1` [Example 25, N-(5-Methyl-3-oxo-1,2-diphenyl-2,3-dihydro-1H-pyrazol-4yl)N′-2-nitrophenylurea] gave an IC50 (CCKB receptor; [4]) of 7.5 µM.
`Cc1c(NC(=O)Nc2ccccc2)c(=O)n(-c2ccccc2)n1-c1ccccc1` [Example 26, N-(5-Methyl-3oxo-1,2diphenyl-2,3-dihydro-1H-pyrazol4-yl)—N′-phenylurea] gave an IC50 (CCKB receptor; [4]) of 3 µM.
`Cc1c(NC(=O)NC2CCCCC2)c(=O)n(-c2ccccc2)n1-c1ccccc1` [Example 27] was tested, and the IC50 (CCKB receptor; [4]) was 0.85 µM.
`COc1ccc(NC(=O)Nc2c(C)n(-c3ccccc3)n(-c3ccccc3)c2=O)cc1` [Example 29] was tested, and the IC50 (CCKB receptor; [4]) was over 20 µM.
`Cc1ccccc1NC(=O)Nc1c(C)n(-c2ccccc2)n(-c2ccccc2)c1=O` [Example 30] showed an IC50 (CCKB receptor; [4]) of over 20 µM.
Work on `Cc1ccc(NC(=O)Nc2c(C)n(-c3ccccc3)n(-c3ccccc3)c2=O)cc1` [Example 31] yielded an IC50 (CCKB receptor; [4]) of over 20 µM.
`Cc1c(NC(=O)Nc2ccc(Cl)cc2)c(=O)n(-c2ccccc2)n1-c1ccccc1` [Example 32] showed an IC50 (CCKB receptor; [4]) of over 20 µM.
`Cc1c(NC(=O)Nc2cccc3ccccc23)c(=O)n(-c2ccccc2)n1-c1ccccc1` [Example 34] showed an IC50 (CCKB receptor; [4]) of over 20 µM.
`Cc1c(NC(=O)NC(C)(C)C)c(=O)n(-c2ccccc2)n1-c1ccccc1` [Example 35] gave an IC50 (CCKB receptor; [4]) of 1 µM.
`Cc1c(NC(=O)c2cc3ccccc3[nH]2)c(=O)n(-c2ccccc2)n1-c1ccccc1` [Example 36, N-(5-Methyl-3-oxo-1,2-diphenyl-2,3dihydro-1H-pyrazol-4yl)-1H-indole-2-carboxamide] was tested, and the IC50 (CCKB receptor; [6]) was 0.03 µM, the IC50 (CCKA receptor; [7]) was 0.02 µM and the “Ratio A/B” value (CCKA receptor; Table 4) was 1.5.
For `Cc1c(NC(=O)c2c[nH]c3ccccc23)c(=O)n(-c2ccccc2)n1-c1ccccc1` [Example 37, N-(5-Methyl-3-oxo-1,2-diphenyl-2,3-dihydro-1H-pyrazol-4yl)-1H-indole-3-carboxamide], the IC50 (CCKB receptor; [6]) was 3.5 µM, the IC50 (CCKA receptor; [7]) was 2 µM and the “Ratio A/B” value (CCKA receptor; Table 4) was 1.8.
For `Cc1c(NC(=O)Cc2c[nH]c3ccccc23)c(=O)n(-c2ccccc2)n1-c1ccccc1` [Example 38], the IC50 (CCKB receptor; [6]) was 2.5 µM, the IC50 (CCKA receptor; [7]) was 0.02 µM and the “Ratio A/B” value (CCKA receptor; Table 4) was 125.
With `Cc1c(NC(=O)CCc2c[nH]c3ccccc23)c(=O)n(-c2ccccc2)n1-c1ccccc1` [Example 39, N-(5-Methyl-3-oxo-1,2-diphenyl-2,3-dihydro-1H-pyrazol-4-yl)-3-(1H-indol-3-yl)propanamide] the IC50 (CCKB receptor; [6]) was 2 µM, the IC50 (CCKA receptor; [7]) was 0.025 µM and the “Ratio A/B” value (CCKA receptor; Table 4) was 80.
With `Cc1c(NC(=O)CCCc2c[nH]c3ccccc23)c(=O)n(-c2ccccc2)n1-c1ccccc1` [Example 40, N-(5Methyl-3-oxo-1,2-diphenyl-2,3-dihydro-1H-pyrazol-4yl)-4-(1H-indol-3-yl)butanamide] the “Ratio A/B” value (CCKA receptor; Table 4) was 1.
